Columns and labels:
[1] = system: DARQ J mutant M. tuberculosis; format: cell-based, Mycobacterium tuberculosis
[2] = system: M. tuberculosis strains resistant to J; format: cell-based, Mycobacterium tuberculosis

| SMILES | effect on ATP production (total cellular ATP) [1] | sensitivity of M. tuberculosis strains resistant to J to the anti-TB agent [2] |
| --- | --- | --- |
| C(=NC1CCCCC1)=NC1CCCCC1 [DCCD, reference compound] | able to block the ATP production |  |
| CC[C@@H](CO)NCCN[C@@H](CC)CO [ethambutol] |  | unchanged |
| CO[C@H]1/C=C/O[C@@]2(C)Oc3c(C)c(O)c4c(O)c(c(/C=N/N5CCN(C)CC5)c(O)c4c3C2=O)NC(=O)/C(C)=C\C=C\[C@H](C)[C@H](O)[C@@H](C)[C@@H](O)[C@@H](C)[C@H](OC(C)=O)[C@@H]1C [rifampin] |  | unchanged |
| NCC[C@H](O)C(=O)N[C@@H]1C[C@H](N)[C@@H](O[C@H]2O[C@H](CN)[C@@H](O)[C@H](O)[C@H]2O)[C@H](O)[C@H]1O[C@H]1O[C@H](CO)[C@@H](O)[C@H](N)[C@H]1O [amikacin] |  | unchanged |
| NNC(=O)c1ccncc1 [isoniazid] |  | unchanged |
| [H]/N=C(/N)N[C@H]1[C@H](O)[C@@H](O)[C@H](O[C@@H]2O[C@@H](C)[C@](O)(C=O)[C@H]2O[C@@H]2O[C@@H](CO)[C@H](O)[C@@H](O)[C@@H]2NC)[C@@H](N/C(N)=N\[H])[C@@H]1O [streptomycin] |  | unchanged |
| COc1nc2ccc(Br)cc2cc1[C@@H](c1ccccc1)[C@@](O)(CCN(C)C)c1cccc2ccccc12 [J] | did not show any decrease |  |

Source: patent US8378085B2, “Bacterial ATP synthase binding domain” (priority 2004, dated 2013)
